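A five-concentration, 48-hour dose response in 96-well plates underlies each endpoint, interpolated linearly between surrounding concentrations. At the TGI there is no net growth.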
Tests used:
Assay in all cases: NCI tumour cell line growth inhibition, 48 h
A549 NSCLC = tested on: A549 NSCLC
ACHN renal = tested on: ACHN renal
BT-549 breast = tested on: BT-549 breast
DU-145 prostate = tested on: DU-145 prostate
HT29 colon = tested on: HT29 colon
KM12 colon = tested on: KM12 colon
NCI-H226 lung = tested on: NCI-H226 lung
NCI-H522 lung = tested on: NCI-H522 lung
NCI/ADR-RES ovarian = tested on: NCI/ADR-RES ovarian
SK-MEL-5 melanoma = tested on: SK-MEL-5 melanoma
SK-OV-3 ovarian = tested on: SK-OV-3 ovarian

| SMILES | TGI (A549 NSCLC) | TGI (ACHN renal) | TGI (BT-549 breast) | TGI (DU-145 prostate) | TGI (HT29 colon) | TGI (KM12 colon) | TGI (NCI-H226 lung) | TGI (NCI-H522 lung) | TGI (NCI/ADR-RES ovarian) | TGI (SK-MEL-5 melanoma) | TGI (SK-OV-3 ovarian) |
| --- | --- | --- | --- | --- | --- | --- | --- | --- | --- | --- | --- |
| C=C1CC[C@H](O)C(C)(C)[C@@H]1CC/C(C)=C/CC/C=C(\C)CC/C=C(\C)CCC=C(C)C | > 100 µM | > 100 µM | > 100 µM | > 100 µM | > 100 µM | > 100 µM | > 100 µM | > 100 µM | > 100 µM | > 100 µM | > 100 µM |
| NCCCCC(N)C(=O)NCCNc1ccc(NCCNC(=O)C(N)CCCCN)c2c1C(=O)c1ccccc1C2=O (stereo unspecified) | > 100 µM | > 100 µM | 20.1 µM | > 100 µM | > 100 µM | > 100 µM | > 100 µM | > 100 µM | > 100 µM | > 100 µM | > 100 µM |
| Cc1ccccc1N=Nc1ccc(N/N=C2/CCCNC2=O)c(C)c1 | > 100 µM | > 100 µM | > 100 µM | > 100 µM | > 100 µM | > 100 µM | > 100 µM | > 100 µM | > 100 µM | > 100 µM | > 100 µM |
| COc1ccc(CCN2CCN(CCc3ccc(OC)cc3)CC2)cc1 | > 100 µM | > 100 µM | > 100 µM | > 100 µM | > 100 µM | > 100 µM | > 100 µM | > 100 µM | > 100 µM | > 100 µM | > 100 µM |
| COc1ccc(C2=Nn3c(nnc(Cc4ccc(Cl)cc4)c3=O)SC2)cc1 | > 100 µM | > 100 µM | > 100 µM | > 100 µM | > 100 µM | > 100 µM | > 100 µM | > 100 µM | 53.7 µM | > 100 µM | > 100 µM |
| COc1ccccc1N1CCN(CCCN2/C(=C(\O)c3ccccc3)C(=O)c3c(C)cc(C)nc3S2(=O)=O)CC1 | > 100 µM | > 100 µM | > 100 µM | > 100 µM | > 100 µM | > 100 µM | 87.9 µM | > 100 µM | > 100 µM | > 100 µM | > 100 µM |

Reference: PubChem BioAssay (NCI)
